Experimental findings from patent US20250171438A1 (Agios Pharmaceuticals, Inc., priority 2022, published 2025) are described below.

In this assay the target is T1, human PAH with the R408W mutation (Homo sapiens, UniProt P00439, R408W).
T1 construct: expressed in transfected cells
T1 sequence (P00439 1-452 R408W): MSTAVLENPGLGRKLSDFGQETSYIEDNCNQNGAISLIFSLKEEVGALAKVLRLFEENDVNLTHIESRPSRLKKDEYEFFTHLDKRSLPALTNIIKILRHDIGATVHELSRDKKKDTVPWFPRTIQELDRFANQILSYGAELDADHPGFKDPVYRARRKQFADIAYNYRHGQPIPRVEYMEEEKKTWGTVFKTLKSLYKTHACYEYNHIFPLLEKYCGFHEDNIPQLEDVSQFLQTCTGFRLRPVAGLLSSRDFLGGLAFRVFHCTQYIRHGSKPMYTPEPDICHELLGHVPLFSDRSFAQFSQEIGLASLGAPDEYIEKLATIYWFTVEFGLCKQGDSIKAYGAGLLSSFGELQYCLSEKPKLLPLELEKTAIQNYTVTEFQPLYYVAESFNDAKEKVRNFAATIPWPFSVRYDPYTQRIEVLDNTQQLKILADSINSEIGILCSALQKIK
Kind of assay: Cell Based Phenylalanine Flux Assay. The conditions noted are these: A375 cells expressing human R408W PAH; 24 hrs compound incubation; 13C-Tyrosine by LC-MS; average where tested multiple times; read-out: AC50.

The structures appear in SMILES notation.

The AC50 is the midpoint of the concentration-response curve, whichever way the signal moves. As for `O=C(c1nnc(C2CC2)o1)N1CCc2[nH]cnc2[C@H]1c1nc2ccccc2s1` [Example 1363], the AC50 is below 500 nM.

`O=C(c1nnc(C2CC2)o1)N1CCc2[nH]cnc2[C@@H]1c1nc2ccccc2s1` [Example 1364, (R)-(4-(benzo[d]thiazol-2-yl)-6,7-dihydro-1H-imidazo[4,5-c]pyridin-5(4H)-yl)(5-cyclopropyl-1,3,4-oxadiazol-2-yl)methanone]: the AC50 lay within 1000 to 5000 nM. Under `O=C(c1nnc(-c2ccc(F)cn2)o1)N1CCc2[nH]cnc2[C@@H]1c1nc2ccccc2s1` [Example 1366, (R)-(4-(benzo[d]thiazol-2-yl)-6,7-dihydro-1H-imidazo[4,5-c]pyridin-5(4H)-yl)(5-(5-fluoropyridin-2-yl)-1,3,4-oxadiazol-2-yl)methanone] stands 1000 to 5000 nM; under `O=C(c1nnc(-c2c(F)cccc2F)o1)N1CCc2[nH]cnc2[C@H]1c1nc2ccccc2s1` [Example 1367], below 500 nM; under `O=C(c1nnc(-c2c(F)cccc2F)o1)N1CCc2[nH]cnc2[C@@H]1c1nc2ccccc2s1` [Example 1368, (R)-(4-(benzo[d]thiazol-2-yl)-6,7-dihydro-1H-imidazo[4,5-c]pyridin-5(4H)-yl)(5-(2,6-difluorophenyl)-1,3,4-oxadiazol-2-yl)methanone], below 500 nM. Regarding `O=C(c1nnc(-c2ccc(F)cc2)o1)N1CCc2[nH]cnc2[C@H]1c1nc2ccccc2s1` [Example 1369], the half-maximal activity concentration (AC50) was below 500 nM. Turning to `O=C(c1nnc(-c2ccc(F)cc2)o1)N1CCc2[nH]cnc2[C@@H]1c1nc2ccccc2s1` [Example 1370, (R)-(4-(benzo[d]thiazol-2-yl)-6,7-dihydro-1H-imidazo[4,5-c]pyridin-5(4H)-yl)(5-(4-fluorophenyl)-1,3,4-oxadiazol-2-yl)methanone], the AC50 lay in the range of 1000 to 5000 nM. As to `Cc1nc(-c2ccccn2)oc1C(=O)N1CCc2[nH]cnc2[C@H]1c1nc2ccccc2s1` [Example 1371], the AC50 was below 500 nM.

In the case of `Cc1nc(-c2ccccn2)oc1C(=O)N1CCc2[nH]cnc2[C@@H]1c1nc2ccccc2s1` [Example 1372, (R)-(4-(benzo[d]thiazol-2-yl)-6,7-dihydro-1H-imidazo[4,5-c]pyridin-5(4H)-yl)(4-methyl-2-(pyridin-2-yl)oxazol-5-yl)methanone], the AC50 was above 5000 nM. Under `O=C(c1cnc(-c2ncccc2F)s1)N1CCc2[nH]cnc2[C@H]1c1nc2ccccc2s1` [Example 1373] stands below 500 nM; under `O=C(c1cnc(-c2ncccc2F)s1)N1CCc2[nH]cnc2[C@@H]1c1nc2ccccc2s1` [Example 1374, (R)-(4-(benzo[d]thiazol-2-yl)-6,7-dihydro-1H-imidazo[4,5-c]pyridin-5(4H)-yl)(2-(3-fluoropyridin-2-yl)thiazol-5-yl)methanone], 500 to 1000 nM. Regarding `Cc1nc(-c2cnn(C)c2)oc1C(=O)N1CCc2[nH]cnc2[C@@H]1c1nc2ccccc2s1` [Example 1375, (R)-(4-(benzo[d]thiazol-2-yl)-6,7-dihydro-1H-imidazo[4,5-c]pyridin-5(4H)-yl)(4-methyl-2-(1-methyl-1H-pyrazol-4-yl)oxazol-5-yl)methanone], the AC50 was in the range of 1000 to 5000 nM.

Regarding `Cc1nc(-c2cnn(C)c2)oc1C(=O)N1CCc2[nH]cnc2[C@H]1c1nc2ccccc2s1` [Example 1376], the AC50 was below 500 nM. Take `Cc1nc(-c2cnn(C)c2)oc1C(=O)N1CCc2[nH]cnc2[C@@H]1c1nc2c(F)cccc2s1` [Example 1377, (R)-(4-(4-fluorobenzo[d]thiazol-2-yl)-6,7-dihydro-1H-imidazo[4,5-c]pyridin-5(4H)-yl)(4-methyl-2-(1-methyl-1H-pyrazol-4-yl)oxazol-5-yl)methanone]: the AC50 was above 5000 nM. As for `Cc1nc(-c2cnn(C)c2)oc1C(=O)N1CCc2[nH]cnc2[C@H]1c1nc2c(F)cccc2s1` [Example 1378, (S)-(4-(4-fluorobenzo[d]thiazol-2-yl)-6,7-dihydro-1H-imidazo[4,5-c]pyridin-5(4H)-yl)(4-methyl-2-(1-methyl-1H-pyrazol-4-yl)oxazol-5-yl)methanone], the AC50 was below 500 nM. For `Cc1nn(C)cc1-c1ncc(C(=O)N2CCc3[nH]cnc3[C@H]2c2nc3ccccc3s2)s1` [Example 1379] the value was below 500 nM; for `Cc1nn(C)cc1-c1ncc(C(=O)N2CCc3[nH]cnc3[C@@H]2c2nc3ccccc3s2)s1` [Example 1380, (R)-(4-(benzo[d]thiazol-2-yl)-6,7-dihydro-1H-imidazo[4,5-c]pyridin-5(4H)-yl)(2-(1,3-dimethyl-1H-pyrazol-4-yl)thiazol-5-yl)methanone], 1000 to 5000 nM; for `Cc1nn(C)cc1-c1ncc(C(=O)N2CCc3[nH]cnc3[C@H]2c2nc3ccccc3s2)o1` [Example 1381], below 500 nM.

For the molecule `Cc1nn(C)cc1-c1ncc(C(=O)N2CCc3[nH]cnc3[C@@H]2c2nc3ccccc3s2)o1` [Example 1382, (R)-(4-(benzo[d]thiazol-2-yl)-6,7-dihydro-1H-imidazo[4,5-c]pyridin-5(4H)-yl)(2-(1,3-dimethyl-1H-pyrazol-4-yl)oxazol-5-yl)methanone], the AC50 was in the range of 1000 to 5000 nM. For `Cc1c(-c2ncc(C(=O)N3CCc4[nH]cnc4[C@H]3c3nc4ccccc4s3)o2)cnn1C` [Example 1383] the value was below 500 nM. Under `Cc1c(-c2ncc(C(=O)N3CCc4[nH]cnc4[C@@H]3c3nc4ccccc4s3)o2)cnn1C` [Example 1384, (R)-(4-(benzo[d]thiazol-2-yl)-6,7-dihydro-1H-imidazo[4,5-c]pyridin-5(4H)-yl)(2-(1,5-dimethyl-1H-pyrazol-4-yl)oxazol-5-yl)methanone] stands 1000 to 5000 nM. For `Cn1cc(-c2ncc(C(=O)N3CCc4[nH]cnc4[C@H]3c3nc4ccccc4s3)s2)c(C2CC2)n1` [Example 1385] the value was below 500 nM.

For `Cn1cc(-c2ncc(C(=O)N3CCc4[nH]cnc4[C@@H]3c3nc4ccccc4s3)s2)c(C2CC2)n1` [Example 1386, (R)-(4-(benzo[d]thiazol-2-yl)-6,7-dihydro-1H-imidazo[4,5-c]pyridin-5(4H)-yl)(2-(3-cyclopropyl-1-methyl-1H-pyrazol-4-yl)thiazol-5-yl)methanone], the AC50 fell in the range of 1000 to 5000 nM. For `O=C(c1scnc1C1CC1)N1CCc2[nH]cnc2[C@H]1c1nc2ccccc2s1` [Example 1387] the value was below 500 nM; for `O=C(c1scnc1C1CC1)N1CCc2[nH]cnc2[C@@H]1c1nc2ccccc2s1` [Example 1388, (R)-(4-(benzo[d]thiazol-2-yl)-6,7-dihydro-1H-imidazo[4,5-c]pyridin-5(4H)-yl)(4-cyclopropylthiazol-5-yl)methanone], 1000 to 5000 nM. For `Cn1cc(-c2ncc(C(=O)N3CCc4[nH]cnc4[C@H]3c3nc4ccccc4s3)s2)c(C(F)(F)F)n1` [Example 1389], the AC50 was below 500 nM. For `O=C(c1cnc(-c2cnn(CC(F)(F)F)c2)o1)N1CCc2[nH]cnc2[C@H]1c1nc2ccccc2s1` [Example 1391] the value was below 500 nM; for `O=C(c1cnc(-c2cnn(CC(F)(F)F)c2)o1)N1CCc2[nH]cnc2[C@@H]1c1nc2ccccc2s1` [Example 1392, (R)-(4-(benzo[d]thiazol-2-yl)-6,7-dihydro-1H-imidazo[4,5-c]pyridin-5(4H)-yl)(2-(1-(2,2,2-trifluoroethyl)-1H-pyrazol-4-yl)oxazol-5-yl)methanone], 1000 to 5000 nM; for `Cc1nc(C(F)(F)F)oc1C(=O)N1CCc2[nH]cnc2[C@H]1c1nc2ccccc2s1` [Example 1393], below 500 nM.

Turning to `Cc1nc(C(F)(F)F)oc1C(=O)N1CCc2[nH]cnc2[C@@H]1c1nc2ccccc2s1` [Example 1394, (R)-(4-(benzo[d]thiazol-2-yl)-6,7-dihydro-1H-imidazo[4,5-c]pyridin-5(4H)-yl)(4-methyl-2-(trifluoromethyl)oxazol-5-yl)methanone], the AC50 was in the range of 1000 to 5000 nM.

Regarding `Cc1nc(C2CC2)oc1C(=O)N1CCc2[nH]cnc2[C@H]1c1nc2ccccc2s1` [Example 1395], the concentration at half-maximal activity (AC50) is below 500 nM.

Consider `Cc1nc(C2CC2)oc1C(=O)N1CCc2[nH]cnc2[C@@H]1c1nc2ccccc2s1` [Example 1396, (R)-(4-(benzo[d]thiazol-2-yl)-6,7-dihydro-1H-imidazo[4,5-c]pyridin-5(4H)-yl)(2-cyclopropyl-4-methyloxazol-5-yl)methanone], for which the half-maximal activity concentration (AC50) is above 5000 nM.

For `Cc1nc(C(C)C)oc1C(=O)N1CCc2[nH]cnc2[C@H]1c1nc2ccccc2s1` [Example 1397], the AC50 was below 500 nM.

Consider `Cc1nc(C(C)C)oc1C(=O)N1CCc2[nH]cnc2[C@@H]1c1nc2ccccc2s1` [Example 1398, (R)-(4-(benzo[d]thiazol-2-yl)-6,7-dihydro-1H-imidazo[4,5-c]pyridin-5(4H)-yl)(2-isopropyl-4-methyloxazol-5-yl)methanone], for which the AC50 is 1000 to 5000 nM.

As to `Cc1nc(CC2CC2)oc1C(=O)N1CCc2[nH]cnc2[C@H]1c1nc2ccccc2s1` [Example 1399], the AC50 was below 500 nM. Turning to `Cc1nc(CC2CC2)oc1C(=O)N1CCc2[nH]cnc2[C@@H]1c1nc2ccccc2s1` [Example 1400, (R)-(4-(benzo[d]thiazol-2-yl)-6,7-dihydro-1H-imidazo[4,5-c]pyridin-5(4H)-yl)(2-(cyclopropylmethyl)-4-methyloxazol-5-yl)methanone], the AC50 was 1000 to 5000 nM. Take `O=C(c1cnc(C(F)(F)F)o1)N1CCc2[nH]cnc2[C@H]1c1nc2c(F)cccc2s1` [Example 1401, (S)-(4-(4-fluorobenzo[d]thiazol-2-yl)-6,7-dihydro-1H-imidazo[4,5-c]pyridin-5(4H)-yl)(2-(trifluoromethyl)oxazol-5-yl)methanone]: the AC50 is below 500 nM.
